Data from US20140296153A1, “Oligodendrocyte Differentiation” (priority 2011, published 2014).

Assays:
OPC = conditions: cited from earlier work
SVZ cells [1] = assay: Single cell calcium imaging (SCCI) of oligodendrocytic differentiation; type: cell-based, mouse; conditions: AM251 1 μM co-treated with Hp 1 μM, 7 days, 8 coverslips
Procedure: To investigate the influence of Hp on oligodendrocytic differentiation, SVZ neurospheres were allowed to develop for 7 days Hp (100 nm, 1 μM), in serum free medium devoid of growth factor at 37° C.
To determine the functional differentiation pattern of SVZ cells, we analyzed the variations of intracellular calcium-free levels ([Ca^2+]i) in single cells following stimulation with 50 mM KCl, 100 μM histamine (Sigma-Aldrich, St. Louis, Mo. USA) and 0.1 U/ml thrombin (Sigma-Aldrich) stimulation. KCl depolarization causes an increase in [Ca^2+]i in neurons, whereas stimulation with histamine leads to an increase in [Ca^2+]i in stem/progenitor cells, while thrombin leads to an increase in [Ca^2+]i in oligodendrocytes. SVZ cultures were loaded for 40 minutes with 5 μM Fura—2/AM (Molecular Probes, Carlsbad, Calif., USA), 0.1% fatty acid-free BSA, and 0.02% pluronic acid F-127 (Molecular Probes) in Krebs solution (132 mM NaCl, 4 mM KCl, 1.4 mM MgCl2, 1 mM CaCl2, 6 mM glucose, 10 mM HEPES, pH 7.4), in an incubator with 5% CO2 and 95% atmospheric air at 37° C. After a 10-minute postloading period at room temperature (RT) in the same medium without Fura-2/AM and pluronic acid, to obtain a complete hydrolysis of the probe, the glass coverslip was mounted on an RC-20 chamber in a PH3 platform (Warner Instruments, Hamden, Conn., USA) on the stage of an inverted fluorescence microscope (Axiovert 200, Carl Zeiss). […] The variations of [Ca^2+]i were evaluated by quantifying the ratio of the fluorescence emitted at 510 nm following alternate excitation (750 msec) at 340 and 380 nm, using a Lambda DG4 apparatus (Sutter Instrument, Novato, Calif., USA) and a 510 nm band-pass filter (Carl Zeiss) before fluorescence acquisition with a x40 objective and a CoolSNAP digital camera (Roper Scientific, Trenton, N.J., USA). […] KCl, histamine, and thrombin peaks given by the normalized ratios of fluorescence at 340/380 nm, at the proper time periods, were used to calculate the ratios of the responses to histamine/KCl (Hist/KCl-neuronal-like profile) and to thrombin/histamine (Throm/Hist-oligodendrocytic-like profile).
Fluorescence images were recorded using an LSM 510 Meta confocal microscope or an Axioskop 2 Plus fluorescence microscope (both from Carl Zeiss). […] Percentages of TUNEL or BrdU immunoreactive cells in SVZ cell cultures were calculated from cell counts in five independent microscopic fields in each coverslip with a x40 objective (approximately 200 cells per field). […] For SCCl experiments, the percentage of oligodendrocytic-like responding cells (with a Thromb/Hist ratio above 1.3) was calculated on the basis of one microscopic field per coverslip, containing approximately 100 cells (magnification, ×40). […]

SVZ cells [2] = assay: SVZ neurosphere forming assay (primary neurospheres); type: cell-based, mouse; conditions: HGF 50 ng.ml^−1, 6 days, SFM with 5 ng/ml EGF and 2.5 ng/ml FGF-2
Procedure: Neurosphere forming and self-renewal assays were performed on SVZ cells seeded at clonal density, 2500 cells per well in 24-well cell culture plates in SFM containing 5 ng/ml EGF and 2.5 ng/ml FGF-2 and supplemented or not (control) with 1 μM Hp or 50 ng.ml^−1 hepatocyte growth factor (carrier free recombinant human HGF, R&D Systems, Lille, France). After 6 days, the numbers of primary neurospheres were determined. For self-renewal assay, neurospheres were collected, dissociated as single cells and seeded in SFM containing 5 ng/ml EGF and 2.5 ng/ml FGF-2 in 24 well plates. After 6 days, the number of secondary neurospheres was counted.
Fluorescence images were recorded using an LSM 510 Meta confocal microscope or an Axioskop 2 Plus fluorescence microscope (both from Carl Zeiss). In all experiments, measurements were performed in the border of SVZ neurospheres where migrating cells form a cell monolayer. For the SVZ neurosphere forming and self-renewal assays the experiments were replicated in five independent culture preparations and each experimental condition was assayed in four different coverslips. For the remaining experiments, each condition was assayed in three different coverslips, and except where otherwise specified, the experiments were replicated in three independent culture preparations. Percentages of TUNEL or BrdU immunoreactive cells in SVZ cell cultures were calculated from cell counts in five independent microscopic fields in each coverslip with a x40 objective (approximately 200 cells per field). Software used was Axiovision, release 4.6 (Carl Zeiss). For SCCl experiments, the percentage of oligodendrocytic-like responding cells (with a Thromb/Hist ratio above 1.3) was calculated on the basis of one microscopic field per coverslip, containing approximately 100 cells (magnification, ×40).
Neural stem-like cells are characterized in vitro by both their capacity to give rise to neurospheres and to self-renew when cultured in the presence of mitogens.

SVZ cells [3] = assay: SVZ self-renewal assay (secondary neurospheres); type: cell-based, mouse; conditions: primary neurospheres exposed to HGF 50 ng.ml^−1 for 6 days, replated without HGF
[4] = administered to rats; cited from earlier work
CB1R = CB1R (Homo sapiens, UniProt P21554); conditions: cited from earlier work
CB1R, sequence (P21554 whole entry): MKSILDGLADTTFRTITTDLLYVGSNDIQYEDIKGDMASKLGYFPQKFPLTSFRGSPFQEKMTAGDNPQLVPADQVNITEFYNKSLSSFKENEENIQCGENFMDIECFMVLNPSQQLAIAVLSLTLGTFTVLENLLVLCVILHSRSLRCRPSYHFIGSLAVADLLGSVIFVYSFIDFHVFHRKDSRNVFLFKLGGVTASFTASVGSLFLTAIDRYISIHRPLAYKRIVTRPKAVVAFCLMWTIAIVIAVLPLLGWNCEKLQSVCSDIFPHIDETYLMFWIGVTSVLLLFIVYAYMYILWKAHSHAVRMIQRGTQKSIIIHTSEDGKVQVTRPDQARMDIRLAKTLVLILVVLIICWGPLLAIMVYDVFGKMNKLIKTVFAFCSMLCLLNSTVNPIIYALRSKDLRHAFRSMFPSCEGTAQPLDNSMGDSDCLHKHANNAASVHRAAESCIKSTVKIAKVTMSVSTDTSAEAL

Compound: COc1ccc(C(=O)c2c(C)n(CCN3CCOCC3)c3cc(I)ccc23)cc1 [AM630]
- OPC differentiation into mature oligodendrocytes (OPC): do not induce but impair

Compound: Cc1c(C(=O)NN2CCCCC2)nn(-c2ccc(Cl)cc2Cl)c1-c1ccc(I)cc1 [Am 251, reference compound]
- cells responding with a Throm/Hist ratio above 1.3 (oligodendrocyte-like responding cells) (SVZ cells [1]): 1.07±0.24%

Compound: Cc1c(C(=O)NN2CCCCC2)nn(-c2ccc(Cl)cc2Cl)c1-c1ccc(Cl)cc1 [rimonabant]
- OPC differentiation into mature oligodendrocytes (OPC): do not induce but impair

Compound: HGF: carrier free recombinant human HGF, used as a positive control
- number of primary neurospheres (control 100%) (SVZ cells [2]): 121.0±13.14%
- number of secondary neurospheres (control 100%) (SVZ cells [3]): 120.0±11.54%

Compound: PVNFKWLSH (listed as Homo sapiens) [SEQ ID 4, variant of Hp peptide]
- periepididymal and visceral fat content compared to the control group [4]: reduced

Compound: RVDPVNFKFLSH (listed as Homo sapiens) [SEQ. ID. 3, N-terminally extended variant of Hp, Arg Val Asp Pro Val Asn Phe Lys Phe Leu Ser His]
- activity at CB1R cannabinoid receptors (CB1R): function as agonists

Compound: VDPVNFKFLSH (listed as Homo sapiens) [SEQ. ID. 2, N-terminally extended variant of Hp, Val Asp Pro Val Asn Phe Lys Phe Leu Ser His]
- activity at CB1R cannabinoid receptors (CB1R): function as agonists
